This note sets out measurements from PubChem BioAssay (NCI).

“And” between values parts separate entries of the source, which are not always exact repeats. Identical values can stand only once.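 Growth conditions: 96-well plates. Treatment: test compound, 48 hours, 5 concentrations. Analysis: linear interpolation between bracketing concentrations; unreached endpoints set to highest concentration. GI50: concentration for 50% inhibition of growth. TGI marks complete inhibition of growth.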 A value given as a limit tells only on which side of the number the result lay.

Some test systems named below: MALME-3M melanoma; 786-0 renal; RXF 393 renal; A498 renal; OVCAR-5 ovarian; A549 NSCLC; COLO 205 colon; HCT-15 colon; PC-3 prostate; CAKI-1 renal.
Common to all, as to assay: NCI anticancer screen, dose series, 48 h

Regarding `O=C(CCl)c1ccc([N+](=O)[O-])o1`, the GI50 in the experiment on MALME-3M melanoma is 1.98 µM; with 786-0 renal, 3.32 µM; with RXF 393 renal, 2.2 µM; in the experiment on A498 renal, 13.6 µM; with OVCAR-5 ovarian it was 2.48 µM; with A549 NSCLC, 21.1 µM. For the same compound, the GI50 in the experiment on COLO 205 colon is 1.73 µM; with HCT-15 colon it was 1.61 µM; with PC-3 prostate, 2.15 µM; with CAKI-1 renal, 1.73 µM. Moreover, the TGI in the experiment on MALME-3M melanoma was found to be 4.37 µM; in the experiment with 786-0 renal it was 10.9 µM; with RXF 393 renal, 8.24 µM; in the experiment with A498 renal, 27.5 µM; in the experiment on OVCAR-5 ovarian, 5.3 µM; with A549 NSCLC, 54.4 µM. Also, the TGI in the experiment with COLO 205 colon came to 3.72 µM; with HCT-15 colon it was 3.22 µM; in the experiment on PC-3 prostate it was 6.34 µM; with CAKI-1 renal, 3.24 µM.

As for `CC[C@](C)(O)C(=O)O[C@H]1C(=O)O[C@@H]2C[C@H]3C(C)=CC(=O)[C@@H](O)[C@]3(C)[C@H]3[C@@]4(O)OC[C@]32[C@@H]1[C@@H](C)[C@H]4O`, the GI50 with MALME-3M melanoma is 0.0337 µM; in the experiment on RXF 393 renal, 0.285 µM; with A498 renal it was 0.95 µM; in the experiment on OVCAR-5 ovarian, 0.762 µM; in the experiment on A549 NSCLC, 2.75 µM; with COLO 205 colon, 1.92 µM. The GI50 with HCT-15 colon was 0.214 µM; in the experiment on CAKI-1 renal, 0.577 µM and 0.158 µM. Moreover, the TGI is 0.137 µM in the experiment on MALME-3M melanoma; 0.832 µM in the experiment with 786-0 renal; 3.36 µM and 1.15 µM in the experiment on A498 renal; 8.16 µM and 6.86 µM in the experiment with OVCAR-5 ovarian; 14.9 µM and 9.66 µM in the experiment with A549 NSCLC; 7.24 µM and 3.35 µM in the experiment on COLO 205 colon. In addition, the TGI in the experiment on HCT-15 colon is 0.874 µM and 0.533 µM; in the experiment with PC-3 prostate, 44.5 µM; in the experiment on CAKI-1 renal, 8.8 µM and 1.35 µM.

On to `CC12CCC(=O)C=C1CCC1C2CCC2(C)C(C(=O)Cn3cnc4c(=S)nc[nH]c43)CCC12` (configuration not stated), for which the TGI in the experiment on MALME-3M melanoma was above 100 µM; in the experiment on 786-0 renal, above 100 µM; in the experiment with RXF 393 renal it was 44 µM; in the experiment with A498 renal, 79 µM; in the experiment on OVCAR-5 ovarian, above 100 µM; in the experiment on A549 NSCLC it was above 100 µM. For the same compound, the TGI in the experiment with COLO 205 colon, in the experiment on HCT-15 colon, in the experiment with PC-3 prostate and in the experiment with CAKI-1 renal was above 100 µM each time.

In the case of `CC(=O)OC1c2ccccc2CC2(OC(C)=O)c3ccccc3C12` (configuration not stated), the TGI with MALME-3M melanoma, with 786-0 renal, in the experiment with RXF 393 renal, in the experiment with A498 renal, in the experiment on OVCAR-5 ovarian and in the experiment on A549 NSCLC was above 100 µM each time. The TGI in the experiment on COLO 205 colon, with HCT-15 colon, in the experiment with PC-3 prostate and with CAKI-1 renal was above 100 µM throughout.

With `N#CSc1ncnc2nc[nH]c12`, the GI50 was 10.6 µM in the experiment on MALME-3M melanoma; 3.53 µM in the experiment on 786-0 renal; 21.6 µM with RXF 393 renal; 24.1 µM in the experiment with A498 renal; 17.2 µM in the experiment with OVCAR-5 ovarian; 50.2 µM in the experiment with A549 NSCLC. The GI50 in the experiment with COLO 205 colon was 5.31 µM; with HCT-15 colon, 8.82 µM; in the experiment with PC-3 prostate, 28.7 µM; in the experiment on CAKI-1 renal, 2.01 µM. Further, the TGI with MALME-3M melanoma, in the experiment with 786-0 renal, with RXF 393 renal, in the experiment with A498 renal, in the experiment with OVCAR-5 ovarian and in the experiment with A549 NSCLC was above 100 µM each time. Further, the TGI was 22 µM with COLO 205 colon, above 100 µM with HCT-15 colon, above 100 µM in the experiment with PC-3 prostate and 30.1 µM in the experiment with CAKI-1 renal.

Turning to `O=S(=O)(c1ccc(NC(=S)NCc2cccnc2)cc1)N1CCCCC1`, the GI50 in the experiment with MALME-3M melanoma is 84.9 µM; with 786-0 renal, above 100 µM; in the experiment with RXF 393 renal, 72.4 µM; in the experiment on A498 renal, 15 µM; with OVCAR-5 ovarian it was 5.46 µM; in the experiment with A549 NSCLC, 11 µM. The GI50 in the experiment with COLO 205 colon is 8.63 µM; in the experiment on HCT-15 colon, 13.6 µM; with PC-3 prostate it was 1.5 µM; in the experiment with CAKI-1 renal, 20.4 µM. The TGI in the experiment on MALME-3M melanoma, with 786-0 renal, in the experiment with RXF 393 renal, with A498 renal, in the experiment on OVCAR-5 ovarian and with A549 NSCLC was above 100 µM each time. Further, the TGI with COLO 205 colon, in the experiment with HCT-15 colon, with PC-3 prostate and with CAKI-1 renal was above 100 µM in each case.

Consider `CCc1c(C)[nH]c(/C=C2\N=C(c3ccc[nH]3)C=C2OC)c1C`, for which the GI50 in the experiment with MALME-3M melanoma is 0.474 µM; with 786-0 renal it was 0.177 µM; in the experiment on RXF 393 renal it was 0.473 µM; in the experiment with A498 renal it was 6.87 µM; in the experiment with OVCAR-5 ovarian it was 0.413 µM; in the experiment with A549 NSCLC, 0.498 µM. The GI50 in the experiment with COLO 205 colon was 0.268 µM; in the experiment on HCT-15 colon it was 0.0935 µM; in the experiment with PC-3 prostate, 0.153 µM; in the experiment on CAKI-1 renal, 0.292 µM. For the same compound, the TGI in the experiment on MALME-3M melanoma worked out at 2.05 µM; in the experiment on 786-0 renal, 0.675 µM; in the experiment with RXF 393 renal, 4.11 µM; in the experiment on A498 renal, 21.5 µM; in the experiment on OVCAR-5 ovarian, 7.3 µM; in the experiment with A549 NSCLC, 10.5 µM. Also, the TGI in the experiment with COLO 205 colon worked out at 1.88 µM; in the experiment with HCT-15 colon, 3.75 µM; in the experiment with PC-3 prostate it was 10.8 µM; in the experiment with CAKI-1 renal, 3.53 µM.

As for `C=C(C)[C@@H]1CC[C@]2(C(=O)NCCCN)CC[C@]3(C)[C@H](CC[C@@H]4[C@@]5(C)CC[C@H](O)C(C)(C)[C@@H]5CC[C@]43C)[C@@H]12`, the GI50 with MALME-3M melanoma is 23.3 µM; with 786-0 renal it was 23.2 µM; in the experiment with RXF 393 renal it was 17 µM; with A498 renal, 22.9 µM; in the experiment on OVCAR-5 ovarian it was 14.8 µM; in the experiment on A549 NSCLC, 19.6 µM. The GI50 in the experiment on COLO 205 colon was 21 µM; in the experiment with HCT-15 colon it was 21.7 µM; in the experiment on PC-3 prostate it was 12.6 µM; in the experiment on CAKI-1 renal, 21.9 µM. The TGI in the experiment on MALME-3M melanoma was found to be 94.1 µM; in the experiment on 786-0 renal, 63.4 µM; in the experiment with RXF 393 renal, 44.1 µM; in the experiment on A498 renal, 49.2 µM; in the experiment on OVCAR-5 ovarian it was 31.3 µM; in the experiment with A549 NSCLC, 66.5 µM. In addition, the TGI is above 100 µM in the experiment with COLO 205 colon, above 100 µM in the experiment with HCT-15 colon, 37.8 µM in the experiment on PC-3 prostate and above 100 µM in the experiment on CAKI-1 renal.
